Experimental data from patent US8119116B2, “Therapeutics for cancer using 3-bromopyruvate and other selective inhibitors of ATP production” (John Hopkins University School of Medicine, priority 2001, dated 2012).

Legend:
[1] = test system: rabbits harboring liver implanted VX2 tumors; assay: Systemic delivery via marginal ear vein, animal toxicity; format: in vivo, rabbit; details: 25 ml, 0.5 mM via a marginal ear vein
Description: (§1) Normal tissues and tumors were fixed in 10% formalin, sliced at […] intervals for gross examination, and then embedded completely in paraffin after which […] sections were stained with hemotoxylin and eosin. Tumor viability was estimated by visual inspection and expressed as a percentage of viable tumor area for each slice. The overall percentage of viable tumor in each rabbit was calculated.
(§2) Finally, it was important to examine the effect of 3-BrPA when delivered systemically (i.e., via the general circulation) on both animal toxicity and its capacity to damage liver implanted tumors.

"metastatic" lung tumors = assay: Systemic delivery via marginal ear vein, effect on metastatic lung tumors; format: in vivo, rabbit; details: 25 ml, 0.5 mM, 4 days
Description: as §1, §2

[2] = test system: rabbit VX2 tumor mitochondria; assay: Mitochondrial respiration (oxygen consumption); format: biochemical; details: 1.2 mM
Description: The freshly isolated liver or VX2 tumor tissues (15-20 g wet weight) was rinsed in 3 volumes of H-medium (210 mM D-mannitol, 70 mM sucrose, 2 mM Hepes, and 0.05% bovine albumin, pH 7.4) at 4° C. and minced with a razor blade as finely as possible. A 30% (V/V) suspension was made using ice-cold H-medium in a Potter-Elvehjem glass homogenizer (55 ml capacity), and homogenization was achieved by applying 4 complete up and down strokes through the suspension with a rotating (˜400 rpm), serrated, teflon pestle attached to a motor. To remove cell debris and nuclei, the resultant homogenate was diluted to twice the initial volume and centrifuged at 630×g for 8 minutes at 4° C. in a Sorvall RC-2B centrifuge using a GSA rotor. The supernatant was removed and then centrifuged at 6,800 g for 15 min under the same conditions. The resultant supernatant was saved and referred to here as the cytosolic faction. […]
Oxygen consumption rates were measured polarographically using a Clark oxygen electrode inserted into a 2.5 ml chamber equipped with a magnetic stirrer. […] The loss of oxygen was monitored in a 2.1 ml system at 25° C. containing 1 mg mitochondria, 0.5 mM EDTA, 2.0 mM Hepes, 220 mM D-mannitol, 70 mM sucrose, 2.5 mM KPi, 2.6 mM MgCl2, and 0.5 mg/ml bovine albumin, and, where indicated, 7.8 mM succinate (respiratory substrate), and 0.24 mM ADP (ATP synthesis substrate). […]

[3] = test system: surrounding liver tissue and major tissues; assay: Histology of surrounding liver and major tissues after intraarterial injection or embolization; details: rabbit, in vivo
Description: Administration of anesthesia, intravenous access and sodium pentothal anesthesia were carried out as described in Example 12. Transcatheter hepatic artery injection of 3-BrPA was performed under fluoroscopy. The animals were brought to the angiography suite and intubated using a size 3.0 mm endotracheal tube (Mallinkrodt Medical, St. Louis, Mo.) but not ventilated. Surgical cut-down was performed to gain access into the right common femoral artery, after which a 3 French sheath (Cook Inc., Bloomington, Ind.) was placed. A specially manufactured 2 French catheter with a tip in the shape of a hockey-stick (JB1 catheter, Cook Inc., Bloomington, Ind.) was manipulated into the celiac axis after which a celiac arteriogram was performed in order to delineate the blood supply to the liver and confirm the location of the tumor. The tumor could readily be visualized as a region of hypervascular blush located on the left side of the liver near the gastric fundus. […]
as §1, with “calculated. […]” for “calculated.”

## O=C(O)C(=O)CBr [3BrPA, 3-bromopyruvic acid]
[1]
  animal behavior: normal behavior
[1]; 4 days
  histological examination of 9 major tissues: no obvious damage
"metastatic" lung tumors
  size of secondary tumors in the lungs: only very small tumors
"metastatic" lung tumors; 5 in untreated animals
  "metastatic" lung tumors greater than 1 mm in diameter: almost complete disappearance and none
[2]
  inhibition of mitochondrial respiration (basal succinate rate and ADP stimulated rate): completely inhibits
[3]
  damage to 9 major tissues: In no case was there evidence for damage
  state of portal veins, sinusoids and bile ducts: remained completely intact
